Values quoted from earlier work, collected in patent publication US20220142981A1, “APREMILAST LIPOPHILIC TOPICAL PHARMACEUTICAL COMPOSITIONS” (APRAMITHA INNOVATIONS PRIVATE LIMITED, priority 2019, published 2022).

## CCOc1cc([C@@H](CS(C)(=O)=O)N2C(=O)c3cccc(NC(C)=O)c3C2=O)ccc1OC [Apremilast, N-[2-[(lS)-l-(3-ethoxy-4-methoxyphenyl)-2-(methylsulfonyl)ethyl]-l,3-dioxo-2,3-dihydro-lH-isoindol-4-yl]acetamide]
Polar solvents
  solubility in polar solvents: minimal solubility
water
  solubility in water: insolubility
